Reference: patent EP4282522A1, “SILICA-SUPPORTED IONIC LIQUIDS FOR THE REMOVAL OF C[…] AQUEOUS SAMPLES” (Universidade de Aveiro, priority 2022, dated 2023)

System: Danio rerio embryos
Conditions: 96 h exposure, cyclophosphamide solution 1306 mg L^-1
[1] = materials: maintenance water after 1.5 h contact with the material

Procedure: Aiming to identify the ability of this material to decrease and/or remove the toxicity of the water samples treated, an ecotoxicity test was carried out resorting to assays with Danio rerio embryos. […] Assays with embryos of D. rerio were performed according to the Organisation for Economic Co-operation and Development (OECD) guideline 236 on Fish Embryo Acute Toxicity (FET) Test (OECD, 2013), with small adaptations.
Zebrafish embryos were exposed for 96 h, at a temperature of 26 ± 1 °C and a 16:8h light/dark photoperiod, and observations were made at each 24 h (i.e., 24, 48, 72, and 96 hours) with the help of a stereomicroscope (Zoom-SMZ 1500, Nikon Corporation).
In an embodiment, besides the mortality endpoint (that included coagulated eggs, arrested development, or lack of heartbeat), the sublethal endpoints concerning the hatching rate, final body length, and malformations (such as tail and skeletal malformations, oedemas, and delayed development) (Lammer et al. 2009; "Is the fish embryo toxicity test (FET) with the zebrafish (Danio rerio) a potential alternative for the fish acute toxicity test?" Comp. Biochem. Physiol. Part - C: Toxicol. Pharmacol. 149 (2):196 - 209) were also evaluated. […] Mortality, hatching rate, and percentage of abnormalities were expressed considering the total number of embryos exposed to the different treatments, while the final body length endpoint was evaluated concerning the number of alive larvae at the end of the assay.

For `O=P1(N(CCCl)CCCl)NCCCO1` (stereo not drawn) [cyclophosphamide], the “final body length of zebrafish larvae (average length)” value (control 5.4 ± 0.2 cm) was 4.4 ± 0.4 cm, the malformations [1] was 52% and the mortality [1] was 20%.
